{
  "source": "patent US6391913B1",
  "about": "(priority 1998, dated 2002)",
  "key": {"CCL6 cells": {"system": "CCL6 cells", "assay": "Cytotoxicity of derivatives on CCL6 cell line (Alamar Blue assay, ID50)", "type": "cell-based", "description": "The cytotoxicity activity of the derivatives was evaluated on CCL6 cell line. The cells were maintained in RPMI 1640 supplemented with fetal calf serum 10% at 37° C., under a 5% CO2 atmosphere. Cells were plated at 2500 cells per well in 96 well plates. Drugs or derivatives were added 24 hours later. After three days of incubation with drugs or derivatives, 10 μl of Alamar Blue were added to the medium. The Alamar assay was performed as described by Pagé et al. (Pagé, B., et al., Int. J. Oncol., 3, 473-476, 1993), and the ID50 was calculated."}, "[1]": {"settings": "Chloroform extraction (chloroform-water), mixed one hour, HPLC"}, "[2]": {"settings": "Ratio ID50 of derivative/ID50 of paclitaxel, CCL6 cells, three days of incubation, Alamar Blue"}},
  "note": "Where two headings read alike, the source gives them in different places.",
  "data": [
    {"compound": "2′-[N-(aminohexyl)-amidohexanoic acid]paclitaxel ester [Taxamine 5]", "values": [
      {"measurement": "relative ID* CCL6", "setting": "CCL6 cells; [2]", "value": 13}
    ]},
    {"compound": "CC(=O)OC1C(=O)C2(C)C(O)CC3OCC3(OC(C)=O)C2C(OC(=O)c2ccccc2)C2(O)CC(OC(=O)C(OC(=O)CCCCCCCCC(=O)O)C(NC(=O)c3ccccc3)c3ccccc3)C(C)=C1C2(C)C", "note": "(centres unmarked) [Product 5, 2′-(decanedioic acid)-paclitaxel monoester]", "values": [
      {"measurement": "relative ID* CCL6", "setting": "CCL6 cells", "value": 20}
    ]},
    {"compound": "CC(=O)OC1C(=O)C2(C)C(O)CC3OCC3(OC(C)=O)C2C(OC(=O)c2ccccc2)C2(O)CC(OC(=O)C(OC(=O)CCCCC(=O)NCCN)C(NC(=O)c3ccccc3)c3ccccc3)C(C)=C1C2(C)C", "note": "(centres unmarked) [Taxamine 1, 2′-[N-(aminoethyl)-amidohexanoic acid]-paclitaxel ester]", "values": [
      {"measurement": "Organic phase/aqueous phase", "setting": "[1]", "value": 151},
      {"measurement": "relative ID* CCL6", "setting": "CCL6 cells; [2]", "value": 24}
    ]},
    {"compound": "CC(=O)O[C@H]1C(=O)[C@@]2(C)[C@H]([C@H](OC(=O)c3ccccc3)[C@]3(O)C[C@H](OC(=O)[C@H](O)[C@@H](NC(=O)c4ccccc4)c4ccccc4)C(C)=C1C3(C)C)[C@]1(OC(C)=O)CO[C@@H]1C[C@@H]2O", "note": "[paclitaxel, reference compound]", "values": [
      {"measurement": "relative ID* CCL6", "setting": "CCL6 cells; [2]", "value": 1}
    ]}
  ]
}
